Laboratory results as given in patent US20170097358A1, “EARLY DETECTION OF PREECLAMPSIA” (Igenomix S.L., priority 2014, published 2017).

Experiments:
Assay type in all cases: cell-based, human
plasminogen = experiment: Plasminogen level in hESC conditioned media by ELISA; details: heparin 100 ug/mL; control siRNA, ANXA2 siRNA, non-PE and sPE decidualized hESCs (all conditions)
Method: Plasminogen level was evaluated in conditioned media by ELISA kit (Cell Biolabs, CA, USA) following manufacturer's instructions. Average absorbance (Δ450 nm) in duplicate wells was calculated by subtracting the background from wells with media without hESC.
(§1) hESCs were cultured on monolayer in presence of 50 μg/mL and 100 μg/mL of heparin (Sigma, Madrid, during 15, 30 and 60 min to elaborate a dose-response experiment. Conditioned media from hESC cells were collected to analyze plasminogen levels, plasmin activity and metalloproteases production.

plasmin = experiment: Plasmin activity in hESC conditioned media, fluorimetric assay; details: heparin 100 ug/mL
Method: Plasmin activity was measured in conditioned media by fluorimetric assay kit (Anaspec, CA, USA). It is based in a protease cleavage to plasmin substrate that generates a rhodamine 110 fluorophore which has a bright green fluorescence detected at 496 nm/520 nm (excitation/emission). Fifty microlitres of conditioned media was pre-incubated 10 min at room temperature and 50 uL of plasmin substrate solution was added into each well. Fluorescence signal was obtain for kinetic reading immediately start measuring and record data every 5 min for 60 min, with a total of 13 lectures. Each condition was evaluated in duplicate. The fluorescence was Interpol to concentration values using an Rh110 fluorescence reference standard.
as §1

MMP2 = MMP2 level in hESC conditioned media by ELISA; details: heparin treatment, all hESC conditions
Method: (§2) MMP2 and MMP9 pro and active protein forms were evaluated by commercial ELISA analysis (RayBiotech, GA, USA). These assays employ an antibody specific for humans MMP-2 and MMP-9 coated on a 96-well plate. Standards and samples are pipette by duplicated into the wells and MMP-2 and MMP-9 present in a sample is bound to the wells by the immobilized antibody. Biotinylated anti-human MMP-2 and MMP-9 and HRP-conjugated streptavidin were added. TMB substrate solutions were added and absorbance at 450 nm was extrapolated to standard curve.
as §1

MMP9 = MMP9 level in hESC conditioned media by ELISA; details: heparin treatment, all hESC conditions
Method: as §2, §1

ANXA2 = experiment: Secreted extracellular ANXA2 in hESC conditioned media by ELISA; details: heparin treatment; control, ANXA2 siRNA and sPE hESCs
Method: Protein extracts (2 μg/well) and conditioned media were analyzed by ELISA (R&D Systems, MN, USA). Inmobilized capture antibody specifically binds Annexin A2. After washing away un-bounded material, a biotinylated detection antibody specific for Annexin A2 is used to detect the bound Annexin A2, using a standard Streptavidin-HRP format. Three replicates were performed for each condition and the absorbance values were extrapolated to standard curve to establish human Annexin A2 concentration (pg/mL).
as §1

heparin
Plasminogen secretion into the conditioned media (plasminogen): significantly increased
Plasmin activity (plasmin; ANXA2 siRNA hESCs and hESCs from sPE): significant increase
Plasmin activity in conditioned media (plasmin; control siRNA, ANXA2 siRNA, non-PE and sPE decidualized hESCs (all conditions)): significantly increased
MMP2 production (MMP2): significant increase
MMP9 production (MMP9): significant increase
ANXA2 protein secreted to the culture media (ANXA2): significant increase
